# Measured values reported in patent publication US20220280457A1, “ORAL PHARMACEUTICAL IMMEDIATE RELEASE COMPOSITION AND METHOD OF TREATMENT FOR WEIGHT LOSS” (AARDVARK THERAPEUTICS INC., priority 2019, published 2022).
# Columns and labels:
# healthy volunteers = conditions: cited from earlier work
# male SD rats = test: Single oral dose, 24-hour cumulative food intake study in rats (Example 6, first in vivo study); design: species or system rat; conditions: for Cumulative food intake as compared with vehicle: all indicated time intervals, DA 23.1 mg/kg, DB 26.8 mg/kg
# Procedure: This example compares efficacy of DA versus DB in food inhibition and body weight control. As a background, according to Avau et al., Sci. Rep. […] In our first in vivo study, 45 male SD rats (purchased from Envigo at 8-10 weeks of age) were divided into three groups (15 in each group), which were administered a single oral dose of vehicle (distilled water), 26.8 mg/kg of DB, or 23.1 mg/kg of DA respectively, with a 24-hour observational period, to compare the efficacy of DB versus DA in reducing food intake.
# male C57BL/6N DIO mice = test: 56-day BID treatment of DIO mice: food consumption and body weight (Example 6, second in vivo study); design: species or system mouse; conditions: for Body weight gain as compared to vehicle treatment: high-fat diet, oral BID 56 days
# Procedure: In a second in vivo study, 45 male C57BL/6N DIO mice (purchased from Envigo at 18 weeks of age, fed with high-fat diet) were divided into three groups (15 in each group), which were orally administered vehicle (distilled water), 26.8 mg/kg of DB, or 23.1 mg/kg of DA respectively, twice daily (BID), with a 56-day treatment period to compare the efficacy of DB versus DA in food intake reduction and body weight control. Briefly, once weekly, the food weight for each cage was recorded at 0 hour and then 24 hours later, permitting calculation of food consumption for that 24-hour interval. In addition, starting from Day 0, the mice were weighed three times weekly (every 2-3 days).
# The mean food consumption per animal for 24-hour intervals at indicated measurement days during the treatment period are shown in Table.
# The mean absolute body weight change (in grams) and normalized body weight change (% of baseline) during 56-day treatment period of the three treatment groups are presented in […]. and Table 6.
# rodent obesity models = conditions: benzoate salt of denatonium; cited from earlier work
# [1] = tested on: C57BL/6NTad mice, diet-induced obesity (DIO) mouse model; test: 56-day diet-induced obesity (DIO) mouse weight loss study, DA versus DB (Example 3); format: in vivo; conditions: DA 23.1 mg/kg BID PO
# Description: The 56-day study determined the behavioral effects of bitter taste receptor agonists denatonium acetate (DA) compared to denatonium benzoate (DB) in a diet-induced obesity (DIO) mouse model. […] The study duration was a 3-5 day acclimation period +28 day study period and 2-3 day testing period after study. […] The mice were C57BL/6NTad mice at least 12 weeks in age and 15 mice per group (low dose DA, higher dose DA, high dose DB and control). […] Metabolic biomarkers (blood glucose, blood insulin, blood HbA1c) were measured at the beginning and end of the study. The DA, DB or distilled water control was administered per ostium gavage (PO) at a volume of 5 mL/kg body weight.
# [2] = oral BID, DA 23.1 mg/kg or DB 26.8 mg/kg
compound,measurement,setting,value
"CC[N+](CC)(CC(=O)Nc1c(C)cccc1C)Cc1ccccc1.O=C([O-])c1ccccc1 [DB, benzyl-[2-(2,6-dimethylanilino)-2-oxoethyl]-diethylazanium benzoate]",Nutrient volume tolerance and satiation,healthy volunteers; 1 μmol/kg DB,decreased nutrient volume tolerance and increased satiation
same,"Gastric motility, nutrient volume tolerance, hunger ratings and satiation",healthy volunteers; intragastric administration,"attenuated inter-digestive gastric motility, reduced nutrient volume tolerance, decreased hunger ratings, and increased satiation post meal"
same,Cumulative food intake as compared with vehicle,male SD rats,reduced cumulative food intake
same,Body weight gain as compared to vehicle treatment,"male C57BL/6N DIO mice; DA 23.1 mg/kg, DB 26.8 mg/kg",less body weight gain
same,Mean normalized body weight (% of baseline) on study day 0,male C57BL/6N DIO mice; [2],100.0 % of baseline
same,Mean normalized body weight (% of baseline) on study day 4,"male C57BL/6N DIO mice; oral BID, DA 23.1 mg/kg or DB 26.8 mg/kg, day 4",100.5 % of baseline
same,Mean normalized body weight (% of baseline) on study day 7,"male C57BL/6N DIO mice; oral BID, DA 23.1 mg/kg or DB 26.8 mg/kg, day 7",99.7 % of baseline
same,Mean normalized body weight (% of baseline) on study day 9,"male C57BL/6N DIO mice; oral BID, DA 23.1 mg/kg or DB 26.8 mg/kg, day 9",99.4 % of baseline
same,Mean normalized body weight (% of baseline) on study day 11,"male C57BL/6N DIO mice; oral BID, DA 23.1 mg/kg or DB 26.8 mg/kg, day 11",99.0 % of baseline
same,Mean normalized body weight (% of baseline) on study day 14,"male C57BL/6N DIO mice; oral BID, DA 23.1 mg/kg or DB 26.8 mg/kg, day 14",99.3 % of baseline
same,Mean normalized body weight (% of baseline) on study day 16,"male C57BL/6N DIO mice; oral BID, DA 23.1 mg/kg or DB 26.8 mg/kg, day 16",98.0 % of baseline
same,Mean normalized body weight (% of baseline) on study day 18,"male C57BL/6N DIO mice; oral BID, DA 23.1 mg/kg or DB 26.8 mg/kg, day 18",97.9 % of baseline
same,Mean normalized body weight (% of baseline) on study day 21,"male C57BL/6N DIO mice; oral BID, DA 23.1 mg/kg or DB 26.8 mg/kg, day 21",99.5 % of baseline
same,Mean normalized body weight (% of baseline) on study day 23,"male C57BL/6N DIO mice; oral BID, DA 23.1 mg/kg or DB 26.8 mg/kg, day 23",100.5 % of baseline
same,Mean normalized body weight (% of baseline) on study day 25,male C57BL/6N DIO mice; [2],100.3 % of baseline
same,Mean normalized body weight (% of baseline) on study day 28,male C57BL/6N DIO mice; [2],100.2 % of baseline
same,Mean normalized body weight (% of baseline) on study day 30,male C57BL/6N DIO mice; [2],100.5 % of baseline
same,Mean normalized body weight (% of baseline) on study day 32,"male C57BL/6N DIO mice; oral BID, DA 23.1 mg/kg or DB 26.8 mg/kg, day 32",102.8 % of baseline
same,Mean normalized body weight (% of baseline) on study day 34,"male C57BL/6N DIO mice; oral BID, DA 23.1 mg/kg or DB 26.8 mg/kg, day 34",103.6 % of baseline
same,Mean normalized body weight (% of baseline) on study day 36,"male C57BL/6N DIO mice; oral BID, DA 23.1 mg/kg or DB 26.8 mg/kg, day 36",104.1 % of baseline
same,Mean normalized body weight (% of baseline) on study day 39,"male C57BL/6N DIO mice; oral BID, DA 23.1 mg/kg or DB 26.8 mg/kg, day 39",104.7 % of baseline
same,Mean normalized body weight (% of baseline) on study day 41,"male C57BL/6N DIO mice; oral BID, DA 23.1 mg/kg or DB 26.8 mg/kg, day 41",105.3 % of baseline
same,Mean normalized body weight (% of baseline) on study day 46,"male C57BL/6N DIO mice; oral BID, DA 23.1 mg/kg or DB 26.8 mg/kg, day 46",106.0 % of baseline
same,Mean normalized body weight (% of baseline) on study day 49,"male C57BL/6N DIO mice; oral BID, DA 23.1 mg/kg or DB 26.8 mg/kg, day 49",107.8 % of baseline
same,Mean normalized body weight (% of baseline) on study day 51,"male C57BL/6N DIO mice; oral BID, DA 23.1 mg/kg or DB 26.8 mg/kg, day 51",107.8 % of baseline
same,Mean normalized body weight (% of baseline) on study day 53,"male C57BL/6N DIO mice; oral BID, DA 23.1 mg/kg or DB 26.8 mg/kg, day 53",107.4 % of baseline
same,Mean normalized body weight (% of baseline) on study day 56,"male C57BL/6N DIO mice; oral BID, DA 23.1 mg/kg or DB 26.8 mg/kg, day 56",108.4 % of baseline
same,Food intake and weight gain in rodent obesity models,rodent obesity models,suppressed food intake and inhibited weight gain
"CC(=O)[O-].CC[N+](CC)(CC(=O)Nc1c(C)cccc1C)Cc1ccccc1 [DA, Denatonium acetate]","Food intake reduction, DA versus DB",male SD rats; 23.1 mg/kg DA (57.4 μmol/kg) vs 26.8 mg/kg DB (60 μmol/kg),a greater food intake reduction
same,Cumulative food intake as compared with vehicle,male SD rats,reduced cumulative food intake
same,"Body weight gain, DA versus DB","male C57BL/6N DIO mice; Day 34 to Day 56, 23.1 mg/kg DA vs 26.8 mg/kg DB",body weight gain was less
same,"Food consumption, DA versus DB","male C57BL/6N DIO mice; all indicated measurement days except for Day 42, 23.1 mg/kg DA vs 26.8 mg/kg DB",food consumption was less
same,Body weight gain as compared to vehicle treatment,"male C57BL/6N DIO mice; DA 23.1 mg/kg, DB 26.8 mg/kg",less body weight gain
same,Food consumption compared to vehicle-dosed mice,"male C57BL/6N DIO mice; oral BID, 56 days, DA 23.1 mg/kg, DB 26.8 mg/kg",nominally decreased food consumption
same,Mean normalized body weight (% of baseline) on study day 0,male C57BL/6N DIO mice; [2],100.0 % of baseline
same,Mean normalized body weight (% of baseline) on study day 25,male C57BL/6N DIO mice; [2],100.0 % of baseline
same,Mean normalized body weight (% of baseline) on study day 28,male C57BL/6N DIO mice; [2],100.0 % of baseline
same,Mean normalized body weight (% of baseline) on study day 30,male C57BL/6N DIO mice; [2],100.0 % of baseline
same,Average body weights at the indicated days (FIG. 1),[1]; 56 days,lowest average body weights
same,Serum insulin at the end of the 56 day study (FIG. 3),[1]; versus pre-treatment baseline and vehicle,"close to baseline value (i.e., pre-treatment) and noticeably lower compared to the vehicle-treated group"
